Data on seven compounds can be found in patent US20240174690A1, “ANNULATED 2-AMINO-3-CYANO THIOPHENES AND DERIVATIVES FOR THE TREATMENT OF CANCER” (BOEHRINGER INGELHEIM INTERNATIONAL GMBH, priority 2021, published 2024).

Data set [1] concerns the target KRAS (G12D)::SOS1 (Homo sapiens (Human), UniProt P01116, G12D). Put plainly: KRAS::SOS1 AlphaScreen binding assay, KRAS G12D. An outline of the steps:
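KRAS 1-169 (biotinylated avi-tag) with GST-SOS1 564-1049 and 10 µM GDP in PBS/0.1% BSA/0.05% Tween 20: WT and G13D 10 nM each with 10 nM SOS1; G12D 10 nM and G12C 7.5 nM with 5 nM SOS1. After 30 min, glutathione acceptor/streptavidin donor beads were added for 60 min at RT in the dark, then AlphaScreen read; 4-parameter IC50.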
(In Alpha technology, singlet oxygen from a donor bead excites a nearby acceptor bead.)

Data set [2] has as its system LOVO cells. Put plainly: LOVO CTG proliferation assay (120 h) (CRC, G13D). It is filed as cell-based. Particulars: Homo sapiens, CTG 120 h. An outline of the steps: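 LOVO cells, 1000 per well in DMEM + 10% FCS, were plated overnight and then dosed with compound from DMSO stock. After 120 h at 37 °C, viability was read by CellTiter-Glo luminescence as a percentage of DMSO controls. IC50 was derived by four-parameter non-linear regression.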

The nature of data set [3]: Plasma protein binding assay (PPB), equilibrium dialysis, 10% FCS in PBS. It is filed as in vitro ADME. As to conditions: bovine, read-out: PPB 10% FCS (% fu). An outline of the steps: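 Equilibrium dialysis (5-10 kg/mol cut-off membrane) of 1-10 μmol/L test compound in 10% FCS/PBS against PBS with or without dextran, 3-5 h at 37° C. Compound in each chamber quantified by LC-MS after protein precipitation; fu calculated from Cserum and Cbuffer.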
For orientation: In equilibrium dialysis only unbound substance equilibrates across the membrane.

Sequence of KRAS (G12D)::SOS1 (P01116 other isoform, or with tags, fused parts or gaps G12D): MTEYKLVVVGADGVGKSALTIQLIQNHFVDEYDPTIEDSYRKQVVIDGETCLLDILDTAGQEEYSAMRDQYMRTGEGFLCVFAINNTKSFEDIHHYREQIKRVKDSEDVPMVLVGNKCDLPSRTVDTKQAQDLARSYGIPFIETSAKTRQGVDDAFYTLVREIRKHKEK

One may read the IC50 as the concentration at which inhibition is half-maximal. The low end stands for inhibition by little substance, the high end for a need for much substance. For `COC(=O)c1ccc(-c2cc(O[C@@H](C)[C@@H]3CCCN3C)nc(-c3noc4c3CCC[C@@]43CCCc4sc(N)c(C#N)c43)n2)o1` [II-114], the IC50 in data set [1] was determined as 3 nM; in data set [2], 142 nM. For the same compound, the fraction unbound in data set [3] is 0.07.
On to `C[C@H](Oc1cc(-c2cn[nH]c2)nc(-c2noc3c2CCC[C@@]32CCCc3sc(N)c(C#N)c32)n1)[C@@H]1CCCN1C` [II-87], for which the IC50 in data set [1] is 3 nM; in data set [2] it was 427 nM. The fraction unbound in data set [3] stood at 0.26.
As to `C[C@H](Oc1cc(-n2cc(-c3cccnc3)nn2)nc(-c2noc3c2CCC[C@@]32CCCc3sc(N)c(C#N)c32)n1)[C@@H]1CCCN1C` [II-123], the IC50 came to 8 nM in data set [1] and 72 nM in data set [2]. The fraction unbound in data set [3] turned out to be 0.11.
As to `C[C@H](Oc1cc(C2CCOCC2)nc(-c2noc3c2CCC[C@@]32CCCc3sc(N)c(C#N)c32)n1)[C@@H]1CCCN1C` [II-76], the IC50 in data set [1] was 3 nM; in data set [2], 51 nM. In data set [3], the fraction unbound was found to be 0.61.
On to `C[C@H](Oc1cc(-c2ccn(C3COC3)n2)nc(-c2noc3c2CCC[C@@]32CCCc3sc(N)c(C#N)c32)n1)[C@@H]1C[C@H](F)CN1C` [II-83], for which the IC50 in data set [1] amounted to 20 nM; in data set [2], 2200 nM. In data set [3], the fraction unbound was found to be 0.18.
Turning to `C[C@H](Oc1cc(-n2cc(Cn3ccnc3)nn2)nc(-c2noc3c2CCC[C@@]32CCCc3sc(N)c(C#N)c32)n1)[C@@H]1CCCN1C` [II-113], the IC50 in data set [1] turned out to be 2 nM; in data set [2], 123 nM. Moreover, the fraction unbound in data set [3] is 0.39.
Take `C[C@H](Oc1cc(-n2ccc(C#N)n2)nc(-c2noc3c2CCC[C@@]32CCCc3sc(N)c(C#N)c32)n1)[C@@H]1CCCN1C` [II-102]: the IC50 in data set [1] worked out at 3 nM; in data set [2], 76 nM. In addition, in data set [3], the fraction unbound was 0.04.
